This passage reports Activity, LC50 and IC50 results from ChEMBL document CHEMBL1150873, “A new lysine derivative and new 3-bromopyrrole carboxylic acid derivative from two marine sponges” (J Nat Prod, 1998).

≈ marks a conversion by molar mass, not a printed value.

One data set concerns Artemia. Briefly: (§1) Toxicity in brine shrimp. Format: organism-based. To be noted: in vivo.
Data set [1] is described as follows: as §1. Format: organism-based. Conditions: artemia, in vivo; call rule not given here.
Another data set has as its system P388. Briefly: Cytotoxicity against mouse P388 cells. Format: functional, cell-based.

For `O=C1CCNC(=O)c2[nH]c(Br)cc21`, the Activity result in the data set on Artemia is reported as “Not Active”. The compound `C=C(C)[C@H]1CCC[C@@]2(C)CCC[C@@](C)(SC#N)[C@@H]12` showed an LC50 in data set [1] of 50 mg/L (≈ 190 µM). On to `O=C1NCC(O)n2cc(Br)cc21` (stereo not drawn), for which the Activity entry in the data set with Artemia is reported as “Not Active”. Regarding `O=C(O)/C1=N/CCCC[C@@H](C(=O)O)N1`, in the data set with Artemia, the Activity entry is given as “Not Active”. For `C=C(C)[C@H]1CCC[C@@]2(C)CCC[C@@](C)(NC=O)[C@@H]12`, in data set [1], the LC50 stood at 50 mg/L (≈ 200 µM). The same compound showed an IC50 with P388 of 1.2 mg/L (≈ 4.81 µM). On to `[C-]#[N+][C@]1(C)CCC[C@]2(C)CCC[C@H](C(=C)C)[C@@H]21`, for which, in the data set with P388, inhibition was half-maximal at 8.3 mg/L (≈ 35.9 µM) (IC50). Take `O=C1CCNC(=O)c2[nH]ccc21` [ALDISIN]: in the data set with Artemia, the Activity result was “Not Active”.
